# Measurements published in patent US5484778A, “Phthalocyanine photosensitizers for photodynamic therapy and methods for their use” (priority 1993, dated 1996).
# Like-named read-outs stand apart in the source and are kept apart here.
# How the values were obtained:
# [1] = white light
# [2] = system: Chinese hamster V79-379 cells; assay: Uptake of phthalocyanines by V79 cells relative to AlPcCl (Table 1); format: cell-based
# Procedure: (§1) Chinese hamster V79-379 lung fibroblasts were grown in monolayer culture in McCoy's 5A medium (Gibco Laboratories, Grand Island, N.Y.) augmented with 10% calf serum and buffered with 20 mM HEPES (pH 7.4).
# Total uptake was determined by scraping the phthalocyanine-treated monolayer, collecting the cells on a glass-fiber filter, and extracting the phthalocyanine in ethanol, as previously described by Ramakrishnan, et al., 1989. (Ramakrishnan, N., M. E. Clay, M. F. Horng, A. R. Antunez, & H. H. Evans, "DNA Lesions and DNA Degradation in Mouse Lymphoma L5178Y Cells After Photodynamic Treatment Sensitized by Chloroaluminum Phthalocyanine",Photochem. Photobiol, in press, 1989). The amount of drug was determined by absorption at 674 nm and expressed relative to the number of cells, as measured in a Coulter cell counter on an aliquot of the cell population. Controls included cells not treated with drug, medium alone, and drug-containing medium without cells. The results of the total uptake of the various compositions of the present invention in comparison to AlPcCl are set forth below in Table 1.
# (§2) The cells were treated with 1 μM AlPcCl (from Eastman Kodak, Rochester, N.Y.) or with phthalocyanine compositions I-VI (0.5-1.0 μM final concentration in the medium) for 18 hours by adding the appropriate volume of a 1.0 mM stock solution in dimethylformamide (DMF) to the culture medium. The growth medium was replaced with 4 ml Hank's balanced salt solution (HBSS), and the cells were irradiated. The light source was a 500 W tungsten-halogen lamp located approximately 29 inches below the surface of a glass exposure tray. The visible light administered to the cells was filtered to allow passage of only that portion of the visible spectrum above 600 nm (Lee Primary red filter No. 106, Vincent Lighting, Cleveland, Ohio). The fluence rate was approximately 0.074 kJ/m^2 /s at the level of the cell monolayer.
# All of the compounds have been examined for the extent of cellular uptake after exposure of V79 cells to 1 μM or less in complete medium, and the data of Table 1 are presented relative to the uptake from 1 μM AlPcCl, which was 0.723±0.172 nmole/10^7 cells (mean ±S. D., 25 determinations). […] In particular, when the concentration of Compound IV was 1 μM in the medium, the uptake into the cells was sufficiently high that some of the uptake and phototoxicity studies were repeated at 0.5 μM.
# [3] = system: Chinese hamster V79-379 cells; assay: Clonogenic cell survival / photocytotoxicity in V79 cells (Table 1, FIG. 1, FIG. 2); format: cell-based; settings: for CF10 (AlPcCl)/CF10 (Pc) / F10 (AlPcCl)/F10 (Pc): 1.0 μM, 18 h; for CF10 (AlPcCl)/CF10 (Pc): CF10 = intracellular concentration x fluence reducing survival to 10%; for F10 (AlPcCl)/F10 (Pc): F10 = fluence reducing survival to 10%
# Procedure: FIG. 1 is a graph illustrating the photodynamic efficacy of the various compositions of the present invention in comparison to AlPcCl. The phthalocyanine composition compounds of the present invention were tested for their photodynamic efficiency against Chinese hamster fibroblast V79 cells by colony formation. Monolayer cultures were treated with the indicated phthalocyanine composition for 18 hours, irradiated with various fluences of red light, and immediately trypsinized and replated at appropriate aliquots in triplicate. Colonies of at least 50 cells were counted after 7-10 days. The plating efficiency of the untreated cells was approximately 90%.
# In this regard, in FIG. 2 the data of FIG. 1 were replotted as a function of the product of the amount of cell-associated phthalocyanine and the light fluence.
# as §1, §2
# Cells were irradiated at a density of approximately 2×10^6 per 25 cm^2 flask. Immediately after irradiation, the cell monolayer was treated with trypsin, and appropriate aliquots were plated in triplicate to give 100 to 200 colonies in each 10-cm Petri dish. Cell survival was determined by the ability of the cells to form colonies containing at least 50 cells. The response of cells treated with 1 μM AlPcCl and light was compared in each experiment.
# Photocytotoxicity of the phthalocyanines compounds I to VI was also assessed by clonogenic assay (Table 1, FIG. 1). In all experiments, 1 μM AlPcCl was included for comparison purposes. From the survival curves (FIG. 1), the fluence reducing the cell survival to 10% (F10) was obtained. The ratio of the F10 for AlPcCl and the F10 for the test compound is recorded in Table 1.
# In order to take differences in cellular uptake into consideration in the assessment of the relative efficiency of these phthalocyanines as photosensitizers of V79 cells, the survival data were replotted against the product of intracellular phthalocyanine concentration and light fluence (FIG. 2). From these curves, the product of intracellular concentration and light fluence reducing survival to 10% (CF10) was obtained, and comparisons of the values for AlPcCl and the test compounds are recorded in Table 1.
# [4] = system: Chinese hamster V79-379 cells; assay: Growth delay of V79 cultures after red light (Table 1); format: cell-based; settings: for Growth Delay, efficiency relative to 1 μM AlPcCl: 18 h, 12 kJ/m^2 red light; for inhibition of V79 culture growth (in words): red light 12 kJ/m^2, three day period
# Procedure: as §1, §2
# At the time of light exposure, there were approximately 1.5×10^5 cells per 25 cm^2 flask. Following irradiation, the HBSS was replaced by 10 ml of fresh complete growth medium, and the cultures were returned to the 37° C. incubator. At various times before and after irradiation, duplicate cultures were trypsinized and counted. Controls included untreated cells and cells treated with light alone or drug alone. In addition, in each experiment, the drug to be tested was compared to a standard treatment, i.e. 1 μM AlPcCl for 18 hours followed by 12 kJ/m^2 light.
# The inhibition of V79 culture growth was measured during a three day period following red light irradiation (12 kJ/m^2) of phthalocyanine-pretreated cells. With each of the active compounds, as well as with AlPcCl, there was an initial decrease in cell density, as dead cells became detached from the monolayer. Thereafter, the cell number per flask increased, as living cells grew and divided. The time for the cell density to recover to the level at the time of light exposure was considered the growth delay. […] The ratio of the growth delay for the test photosensitizer and the growth delay for AlPcCl measured in the same experiment is recorded in Table 1.
# V79 cells [5] = assay: Clonogenicity, killing of V79 cells using photodynamic therapy (Table 3); format: cell-based, Chinese hamster
# Outline: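 V79 Chinese hamster lung fibroblasts were loaded with 0.5 or 1.0 μM phthalocyanine, then about 18 h later irradiated with increasing doses of 675 nm broad-band red light (tungsten-halogen lamp, 600 nm high-pass filter). Recorded value is the light dose killing 90% of cells, or, failing that, the maximum kill (% survival) and its dose.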
# L5178Y cells = assay: Induction of apoptosis (DNA fragmentation) in L5178Y-R cells (Table 6); format: cell-based, mouse; settings: for induction of apoptosis: 1 μM at a fluence of 30 kJ/m^2
# Outline: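 Exponentially growing mouse lymphoma L5178Y-R cells loaded 18 hours with phthalocyanine at various concentrations, then irradiated with >600 nm red light (up to 30 kJ/m^2, ~74 W/m^2). DNA isolated 2 hours post-PDT, run on 1.5% agarose; value is minimum PDT dose (concentration × fluence) giving visible DNA ladder.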
# V79 cells [6] = system: V79 cells
# Procedure: (§3) V79 cells Chinese hamster lung fibroblasts were cultured using the cell culture methods described above. […] When the filters were dry, the phthalocyanines were extracted into ethanol and the absorption determined at the peak wavelength, usually 668 nm.
# viruses = settings: New York Blood Center (Ben-Hur); cited from earlier work
# RIF-1 tumors = assay: PDT of RIF-1 implanted tumors (Table 7); format: in vivo, C3H/HeN mice; settings: 1 mg/kg in corn oil; 675 nm, 135 J/cm^2
# Outline: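 C3H/HeN mice each carried one RIF-1 fibrosarcoma on the back and received 1 mg/kg phthalocyanine as a corn-oil suspension. Volume was measured daily by calipers from a 50±10 mm^3 start and calculated with the hemiellipsoid model.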
# V79 cells [7] = assay: Uptake of additional phthalocyanines into V79 cells (Table 2); settings: for Uptake into V79 cells: 18 hours
# Procedure: as §3
smiles,measurement,setting,value
CN1CCN(CCC[Si](C)(C)O[Si]2(C)n3c4c5ccccc5c3N=C3N=C(N=c5c6ccccc6c(n52)=NC2=NC(=N4)c4ccccc42)c2ccccc23)CC1 (stereo not shown) [CH3 SiPcOSi(CH3)2 (CH2)3 NC4 H8 NCH3],photolysis of solutions,[1],rapidly photolyzed by white light
CN(C)CCCN(CCCN(C)C)CCC[Si](C)(C)O[Si]1(C)n2c3c4ccccc4c2N=C2N=C(N=c4c5ccccc5c(n41)=NC1=NC(=N3)c3ccccc31)c1ccccc12 (stereo not shown) [CH3 SiPcOSi(CH3)2 (CH2)3 N[(CH2)3 N(CH3)2]2],photolysis of solutions,[1],rapidly photolyzed by white light
"CN(C)CCC[Si](C)(C)[O][Al]1[n]2c3c4ccccc4c2N=C2N=C(N=c4c5ccccc5c([n]41)=NC1=NC(=N3)c3ccccc31)c1ccccc12 [Compound I, AlPcOSi(CH3)2 (CH2)3 N(CH3)2]","Uptake, efficiency relative to 1 μM AlPcCl","[2]; 1.0 μM, 18 h",2.3
same,cellular uptake (in words),"[2]; V79 cells, 1 μM or less, compared with AlPcCl",taken up into the cells more efficiently than was AlPcCl
same,solubility in solvents,Solubility,soluble in CH2 Cl2 and toluene
same,CF10 (AlPcCl)/CF10 (Pc),[3],0.51
same,F10 (AlPcCl)/F10 (Pc),[3],0.94
same,photosensitizing efficiency / photocytotoxicity (in words),"[3]; V79 cells, red light",nearly as efficient photosensitizers as AlPcCl
same,"Growth Delay, efficiency relative to 1 μM AlPcCl",[4],2.1
same,inhibition of V79 culture growth (in words),[4],substantial inhibition
"CN(C)CCC[Si](C)(C)O[Si]1(C)n2c3c4ccccc4c2N=C2N=C(N=c4c5ccccc5c(n41)=NC1=NC(=N3)c3ccccc31)c1ccccc12 (stereo not shown) [Compound III, CH3 SiPcOSi(CH3)2 (CH2)3 N(CH3)2]",photosensitizing efficiency / photocytotoxicity (in words),[3],low activity
same,"Growth Delay, efficiency relative to 1 μM AlPcCl",[4],0.05
same,inhibition of V79 culture growth (in words),[4],less inhibition of culture growth
same,photolysis of solutions,[1],rapidly photolyzed by white light
CCN(CCC[Si](C)(C)O[Si]1(C)n2c3c4ccccc4c2N=C2N=C(N=c4c5ccccc5c(n41)=NC1=NC(=N3)c3ccccc31)c1ccccc12)CCN(C)C (stereo not shown) [CH3 SiPcOSi(CH3)2 (CH2)3 N(CH2 CH3)(CH2)2 N(CH3)2],photolysis of solutions,[1],rapidly photolyzed by white light
"CCCCCCCCCCCC[N+](C)(C)CCC[Si](C)(C)[O][Al]1[n]2c3c4ccccc4c2N=C2N=C(N=c4c5ccccc5c([n]41)=NC1=NC(=N3)c3ccccc31)c1ccccc12.[I-] [Compound XXI, AlPcOSi(CH3)2 (CH2)3 N^+ (CH3)2)(CH2)11 CH3 I^-]",LD 90,"V79 cells [5]; 0.5 μM, 18 h, light dose killing 90% of cells",15 kJ/m^2
same,Minimum Demonstrated Condition to induce apoptosis: C × F,L5178Y cells; 0.5 μM,7.5 μm × kJ/m^2
same,Minimum Demonstrated Condition to induce apoptosis: Fluence,L5178Y cells; 0.5 μM,15.0 kJ/m^2
same,"Uptake into V79 cells, composite value",V79 cells [6],1.3 n Moles/10^6 cells/μM
same,uptake by V79 cells (in words),V79 cells [6],taken up particulary well
same,purging viruses from blood and/or blood components,viruses,effective at purging viruses from blood and/or blood components
"C[N+](C)(C)CCC[Si](C)(C)O[Si]1(O[Si](C)(C)CCC[N+](C)(C)C)n2c3c4ccccc4c2N=C2N=C(N=c4c5ccccc5c(n41)=NC1=NC(=N3)c3ccccc31)c1ccccc12.[I-].[I-] [Compound VI, SiPc[OSi(CH3)2 (CH2)3 N(CH3)3)^+ I^- ]2]",induction of apoptosis,L5178Y cells,did not induce apoptosis
same,photosensitizing efficiency / photocytotoxicity (in words),[3],low activity
same,"Growth Delay, efficiency relative to 1 μM AlPcCl",[4],0.05
same,inhibition of V79 culture growth (in words),[4],less inhibition of culture growth
same,purging viruses from blood and/or blood components,viruses,effective at purging viruses from blood and/or blood components
"C[N+](C)(C)CCC[Si](C)(C)O[Si]1(O)n2c3c4ccccc4c2N=C2N=C(N=c4c5ccccc5c(n41)=NC1=NC(=N3)c3ccccc31)c1ccccc12.[I-] (stereo not shown) [Compound V, HOSiPcOSi(CH3)2 (CH2)3 N(CH3)3^+ I^-]",induction of apoptosis,L5178Y cells,did not induce apoptosis
same,CF10 (AlPcCl)/CF10 (Pc),[3],3.0
same,F10 (AlPcCl)/F10 (Pc),[3],0.59
same,"Growth Delay, efficiency relative to 1 μM AlPcCl",[4],0
same,inhibition of V79 culture growth (in words),[4],less inhibition of culture growth
same,Doubling Time of Initial Tumor Volume after PDT,RIF-1 tumors,6 days
same,purging viruses from blood and/or blood components,viruses,effective at purging viruses from blood and/or blood components
"CCCCCCCCCCCC[N+](C)(C)CCC[Si](C)(C)O[Si]1(O[Si](C)(C)CCC[N+](C)(C)CCCCCCCCCCCC)n2c3c4ccccc4c2N=C2N=C(N=c4c5ccccc5c(n41)=NC1=NC(=N3)c3ccccc31)c1ccccc12 [Compound XIV, SiPc[OSi(CH3)2 (CH2)3 N^+ (CH3)2 (CH2)11 CH3]2 2I^-]",Uptake into V79 cells,V79 cells [7]; 1 μM,0.03 ± 0.01 n Moles/10^6 cells
same,Uptake into V79 cells,V79 cells [7]; 4 μM,0.05 ± 0.01 n Moles/10^6 cells
same,"Uptake into V79 cells, composite value",V79 cells [7]; average of all data,< 0.05 n Moles/10^6 cells/μM
same,Uptake (from Table 2),V79 cells [7]; repeated in Table 3,< 0.05 n Moles/10^6 cells/μM
same,Cell survival at highest light dose at 1 µM,"V79 cells [5]; Cricetulus griseus, V79, read-out: Maximum Effect (% survival)",93%
same,induction of apoptosis,L5178Y cells,did not induce apoptosis
same,purging viruses from blood and/or blood components,viruses,effective at purging viruses from blood and/or blood components
